Measured values as given in patent US20230321025A1, “METHOD AND COMPOUND FOR THE TREATMENT AND ELIMINATION OF AN IMMUNODEFICIENCY CONDITION” (priority 2020, published 2023).
Values after ≈ are worked out from the molar mass of the structure shown.

What was measured:
[1] = tested on: multi-drug resistant HIV-1 (MDR-27221); test: Inhibitory activity against multi-drug resistant HIV-1 clinical isolate; assay type: cell-based; conditions: MDR-27221 strain
Source text: Furthermore, a resistance conferring mutation has been identified for virtually all antiretroviral agents in clinical practice. A test virus parental stock originated from a genotypic antiretroviral resistance test (GART) study. Additionally, a clinical isolate was pre-confirmed for genetic and phenotypic variance prior to this test. […] Accordingly, the fact that 90I may be effective against MDR viruses with multiple modes of action, it can replace the need for combination HIV drug therapy. This finding may be highly significant because typical current single target-oriented designer antiretroviral drugs have seriously been challenged by resistant viruses. Due to natural selection, the HIV-1 virus may have developed several survival strategies that include mutation.

[2] = tested on: CEM-SS T-lymphoblastoid cells; test: Drug-induced cytotoxicity in CEM-SS cells (tetrazolium reduction); conditions: for Toxicity testing, mean optical density: human, 6 days
Source text: This assay was used to test the effectiveness of anti-HIV drug monotherapy in the established T-cell line CEM-SS infected with HIV-1RF, HIV-1IIIb, HIV-2ROD, or other cytolytic variants of HIV.
The drugs were solubilized in DMSO (dimethyl sulfoxide). […] CEM-SS cells were in logarithmic growth phase at the time of experimentation. Virus (HIV-1RF) stocks that past the necessary quality controls (killing effect on the type of cells used, limited variability, etc) were thawed and maintained on ice until required for addition.
Half-log serial dilutions of the antiviral agent or compound of the invention, H2K1001 (90i), were made in tissue culture media (RPMI 1640 without phenol red, supplemented with 10% heat inactivated fetal bovine serum, 1% L-Glutamine, 1% Pen/Strep and 50 ug/ml gentimycin). Virus, cell, drug and diluent (ethanol) controls were included for these tests. Virus was added after cells and drugs were mixed. Cell, drug, and virus containing cultures were incubated for six (6) days without additional feeding at which time the cultures were evaluated macroscopically and microscopically for cell toxicity, and the tetrazolium salt […] was added for quantitation by the colorimetric determination of formazan production (optical density).
Drug efficacy and cytotoxicity effects were determined six days after infection by the metabolic reduction of the tetrazolium salt XTT to its‘ formazan by surviving cells and was quantitated by determination of optical density at 450 nm with background subtraction at 650 nm (Tables 1-4).
The drug plate analysis reports from this assay are provided below in Tables 1-4. Calculated endpoints (EC50, etc.) were determined using Cho and Cho Median Effect Equation (Daids Virology Manual for HIV Laboratories, Compiled by The Division of Aids, National Institute of Allergy and Infectious Diseases, National Institutes of Health and Collaborating Investigators, Version January 1997).

HIV-1 = test: Cell based time course study (mode of action); conditions: AZT and Indinavir as controls
Source text: As such, the cell based time course study is such an important tool for the determination of viral kinetics and a mode of action for a drug. […] The dynamics of the interactions relate to the viral kinetic of infection and drug addition at various time points. In the various cell-based assays conducted on H2K1001 and/or 90I, it may be reasonably concluded that the compound works both early and late.

[3] = tested on: peripheral blood mononuclear cells (PBMC); test: Drug-induced cytotoxicity in PBMC (MTS); assay type: cell-based; conditions: for Toxicity testing, mean optical density: human, 7 days
Protocol: Drug efficacy was determined by the production of supernatant HIV-1 p24. Drug-induced cytotoxicity was determined by the metabolic reduction of tetrazolium salts (MTS; Promega).
The antiviral drug or agent of the invention, H2K-1001 (90i), was solubilized. PBMCs, stimulated with PHA (phytohemagglutinin) for three days were employed throughout. Virus stocks (U.S. Clinical isolates) grown in PBMCs only, that past the necessary quality controls (i.e., replicate to high titer in PBMCs and meet the requirements as to genotype and phenotype) were rapidly thawed and maintained on ice until required for infection.
Virus and cell controls were included on each test plate. Virus was added after cells and drugs were mixed. Cell, drug and virus containing cultures were incubated for seven (7) days with an interim feeding at day three or four.
Supernatants were sampled at seven days for p24 determination by antigen capture ELISA. Cytotoxicity was measured by the metabolic reduction of the tetrazolium salt according to the manufacturer’s (Promega) recommendations.
The drug analysis reports from these studies are provided below in Tables 7-10. Efficacy (EC50) and viability (IC50) determinations were made using Cho and Cho Median Effect Equation, as noted above. Efficacy is expressed as the 50% effective concentration (EC50) and drug induced toxicity as the 50% inhibitory concentration (IC50).

[4] = tested on: chronically HIV-1 infected H9 cells; test: Co-cultivation study with chronically HIV-1 infected H9 cells; assay type: cell-based
Source text: Viral pathogenesis in co-cultivation of infected cells with uninfected target cells presents a complex system with several target sites (attachment, fusion, transcription, processing, packaging and budding).
In many documented antiretroviral studies, the co-culture system is conventionally used to isolate the virus as well as to study cell-to-cell transmission or to determine if a given compound blocks cell fusion. H2K1001 and/or 90I may use aggressive intervention that could possibly be directed to at least one of a late phase, early fusion and/or attachment, and both early and late. However, judging from the variety of 90I results, early and late mode of action is consistent to this compound.

[5] = tested on: monotropic HIV-1 (macbal); test: Antiretroviral effect against monotropic/neurotropic HIV-1 in monocyte; assay type: cell-based; conditions: monotropic HIV-1 (macbal) in monocyte

Compound: O=C(OCCOCCOC(=O)c1ccccc1)c1ccccc1 [90I, diethylene glycol dibenzoate]
- EC50 ([1]; Human immunodeficiency virus 1): 3 µg/mL
- TI [1]: > 333
- Toxicity % CC ([2]; 0.01 ug/ml): 100 % CC
- Toxicity % CC ([2]; 0.03 ug/ml): 103 % CC
- Toxicity % CC ([2]; 0.1 ug/ml): 104 % CC
- Toxicity % CC ([2]; 0.3 ug/ml): 100 % CC
- Toxicity % CC ([2]; 1 ug/ml): 100 % CC
- Toxicity % CC ([2]; 3 ug/ml): 99 % CC
- Toxicity % CC ([2]; 10 ug/ml): 93 % CC
- Toxicity % CC ([2]; 33 ug/ml): 94 % CC
- Toxicity testing, optical density of single wells ([2]; 33 ug/ml, listed as H2K1001 (90I)): 2.3330
- Toxicity % CC ([2]; 100 ug/ml): 106 % CC
- 50% inhibitory concentration, IC50 (drug induced toxicity) ([2]; CEM-SS, high test concentration 100 ug/ml): greater than 100 ug/ml
- IC50 ([2]; Homo sapiens, CEM-SS): > 100 µg/mL
- Toxicity testing, mean optical density ([2]; 0.01 ug/ml): 2.4317
- Toxicity testing, mean optical density ([2]; 0.03 ug/ml): 2.4969
- Toxicity testing, mean optical density ([2]; 0.1 ug/ml): 2.5149
- Toxicity testing, mean optical density ([2]; 0.3 ug/ml): 2.4130
- Toxicity testing, mean optical density ([2]; 1 ug/ml): 2.4177
- Toxicity testing, mean optical density ([2]; 3 ug/ml): 2.4007
- Toxicity testing, mean optical density ([2]; 33 ug/ml): 2.2879
- Toxicity testing, mean optical density ([2]; 100 ug/ml): 2.5604
- mode of action (time of inhibition) (HIV-1): inhibit HIV-1 both early and late
- Toxicity % CC ([3]; 0.01 ug/ml): 94 % CC
- Toxicity % CC ([3]; 0.03 ug/ml): 103 % CC
- Toxicity % CC ([3]; 0.10 ug/ml): 91 % CC
- Toxicity % CC ([3]; 0.33 ug/ml): 94 % CC
- Toxicity % CC ([3]; 1 ug/ml): 97 % CC
- Toxicity % CC ([3]; 3 ug/ml (3.2 in Table 11)): 94 % CC
- Toxicity % CC ([3]; 10 ug/ml): 100 % CC
- Toxicity % CC ([3]; 32 ug/ml): 104 % CC
- Toxicity % CC ([3]; 100 ug/ml): 111 % CC
- IC50 ([3]; PBMC, read-out: IC50 (drug induced toxicity)): > 100 µg/mL
- IC50 (drug induced toxicity) ([3]; PBMC, unit not given): greater than 100
- Toxicity testing, mean optical density ([3]; 0.01 ug/ml): 1.3114
- Toxicity testing, mean optical density ([3]; 0.03 ug/ml): 1.4316
- Toxicity testing, mean optical density ([3]; 0.1 ug/ml): 1.2654
- Toxicity testing, mean optical density ([3]; 0.33 ug/ml): 1.2992
- Toxicity testing, mean optical density ([3]; 1 ug/ml): 1.3474
- Toxicity testing, mean optical density ([3]; 3 ug/ml): 1.3102
- Toxicity testing, mean optical density ([3]; 10 ug/ml): 1.3987
- Toxicity testing, mean optical density ([3]; 32 ug/ml): 1.4463
- Toxicity testing, mean optical density ([3]; 100 ug/ml): 1.5431
- syncytium formation ([4]; co-cultivation): drastic drop
- cell viability ([4]; co-cultivation, exponential cell growth): greater than ninety percent
- viral burden (p24) after treatment ([4]; co-cultivation, from 1.7 ×10^6 pg of p24): 500 pg
- progression of HIV-1 infection ([4]; compared to untreated controls): effectively blocked the progression of HIV-1 infection
- EC50 ([5]; Human immunodeficiency virus 1, read-out: 50% effective concentration (EC50)): 0.03 µg/mL (≈ 0.0954 µM)
- TI [5]: greater than 4000
